The numbers were not newly measured in patent US20080268034A1, “Solid Oral Dosage Forms of Ziprasidone Containing Colloidal Silicone Dioxide” (priority 2005, published 2008), which cites them from elsewhere.

As for `O=C1Cc2cc(CCN3CCN(c4nsc5ccccc45)CC3)c(Cl)cc2N1` [Ziprasidone free base, 5-[2-[4-(1,2-benzisothiazol-3-yl)-1-piperazinyl]ethyl]-6-chloro-1,3-dihydro-2H-indol-2-one], the solubility entry is “very poor solubility”.
